Laboratory results as given in publication PMC8888699, “Crystal structure and catalytic mechanism of the MbnBC holoenzyme required for methanobactin biosynthesis” (Cell Research, 2022).
Read-outs that look alike come from different tables or passages of the source. Ends that are not written are not given here. Peptide text beside a SMILES is read from it.

Legend:
[1] = target: T1, RrMbnBC (Rugamonas rubra, UniProt A0A1I4IFH0+A0A1I4IFL0); test: UV-Vis activity assay, MbnA modification by RrMbnBC; assay type: biochemical, Rugamonas rubra ATCC 43154; settings: co-expressed in Escherichia coli
T1 sequence (A0A1I4IFL0 1-277): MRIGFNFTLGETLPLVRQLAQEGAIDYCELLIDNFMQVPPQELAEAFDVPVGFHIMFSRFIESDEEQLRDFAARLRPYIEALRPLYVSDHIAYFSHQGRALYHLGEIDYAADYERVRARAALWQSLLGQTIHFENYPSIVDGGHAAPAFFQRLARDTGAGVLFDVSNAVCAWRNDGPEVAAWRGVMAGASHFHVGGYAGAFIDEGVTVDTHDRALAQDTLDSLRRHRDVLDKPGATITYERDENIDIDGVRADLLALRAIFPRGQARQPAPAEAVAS
T1 sequence (A0A1I4IFH0 1-199): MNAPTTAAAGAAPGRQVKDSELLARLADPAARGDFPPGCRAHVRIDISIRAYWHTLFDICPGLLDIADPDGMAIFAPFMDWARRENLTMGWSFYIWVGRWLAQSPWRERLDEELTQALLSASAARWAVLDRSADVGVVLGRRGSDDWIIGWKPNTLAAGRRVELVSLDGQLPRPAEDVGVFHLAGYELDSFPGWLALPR
Description: Standard UV-Vis spectra detection was performed on a UV-Vis and Vis instrument (Ultrospec 2100 pro, Biochrom, UK) at room temperature. MtMbnBC and RrMbnBC proteins were adjusted to 5 mg/mL (nearly 100 μM), and VcMbnBC was adjusted to a concentration of 1 mg/mL (nearly 20 μM). The corresponding substrates, VcMbnA, RrMbnA, MtMbnA, and their variants (Supplementary information, Table S5), were dissolved in distilled water and diluted to a working concentration of 5 mM with buffer B. The reaction was initiated when 100 μL MbnBC proteins and 5 μL MbnA peptides were applied to the reaction system, and the reaction was diluted up to 1 mL with buffer B. The mixture was then added into a quartz cuvette and recorded at 20-s intervals for a total of 50 reads at room temperature. For assays using anaerobically prepared MbnBC proteins, the measurements were immediately recorded by adding the anaerobically prepared MbnBC into the reaction system, with peptides pre-mixed in the quartz cuvette. The buffer B used in the assay was O2-saturated at room temperature.
For the stopped-flow UV-Vis spectroscopic analysis, 10 μM MtMbnBC or RrMbnBC or 2 μM VcMbnBC was incubated with 250 μM MbnA peptides at room temperature for 1 h, followed by detection on a UV-Vis and Vis instrument (Nanodrop One, Thermo Scientific, MA). Data were processed by Graphpad Prism version 8.3.

[2] = target: T1, RrMbnBC; test: Limited proteolysis assay of RrMbnBC with MbnA; set-up: species or system Rugamonas rubra ATCC 43154; settings: ~20 µM RrMbnBC incubated with MbnA 1 h at 4 °C, trypsin 30 min on ice, SDS-PAGE
Description: The limited proteolysis assay allows the characterization of the increase in stability of wild-type proteins upon binding to their substrates. The VcMbnBC and RrMbnBC proteins used in this assay were all adjusted to an equal molar concentration of about 20 µM. The RrMbnBC or VcMbnBC complex, by itself or after incubation with the corresponding MbnA peptide for 1 h at 4 °C, was digested by trypsin. After 30 min of incubation on ice, the proteolyzed products were analyzed by SDS-PAGE and visualized by Coomassie blue staining.

[3] = system: VcMbnBC; test: ITC measurement of VcMbnA and variants binding affinity to VcMbnBC; set-up: species or system Vibrio caribbenthicus BAA-2122
Description: MbnBC and the mutant proteins were all purified using the two-step standard method described above. The purified proteins were adjusted to 1 mg/mL and stored in 25 mM HEPES (pH 8.0) and 100 mM NaCl for ITC measurement. The MbnAs were dissolved and diluted to a working concentration of 2 mM in distilled water. ITC experiments were performed on a Nano ITC (Nano ITC-Low Volume; TA instrument, USA). Settings for the MbnA binding assay were optimized as follows: the titration assay was performed at 16 °C by injecting 2.5 μL MbnA peptide into a full cell containing 190 μL MbnBC or mutant MbnBC proteins every 120 s for a total of 20 injections, and the stirrer syringe stirring speed was set at 250 rpm.

[4] = target: T2, RrMbnBC complex (Rugamonas rubra ATCC 43154); test: ITC
T2 chain 1: T1 sequence (A0A1I4IFL0 1-277)
T2 chain 2: T1 sequence (A0A1I4IFH0 1-199)

[5] = target: T2, RrMbnBC complex; test: ITC
[6] = target: T3, VcMbnBC complex (Vibrio caribbenthicus BAA-2122); test: ITC
T3 chain 1: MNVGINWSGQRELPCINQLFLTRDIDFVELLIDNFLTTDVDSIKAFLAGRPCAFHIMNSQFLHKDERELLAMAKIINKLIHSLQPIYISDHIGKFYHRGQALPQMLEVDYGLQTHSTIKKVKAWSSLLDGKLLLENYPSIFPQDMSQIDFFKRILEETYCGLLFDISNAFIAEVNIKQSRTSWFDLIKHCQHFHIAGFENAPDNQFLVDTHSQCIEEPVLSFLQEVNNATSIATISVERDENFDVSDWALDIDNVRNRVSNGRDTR
T3 chain 2: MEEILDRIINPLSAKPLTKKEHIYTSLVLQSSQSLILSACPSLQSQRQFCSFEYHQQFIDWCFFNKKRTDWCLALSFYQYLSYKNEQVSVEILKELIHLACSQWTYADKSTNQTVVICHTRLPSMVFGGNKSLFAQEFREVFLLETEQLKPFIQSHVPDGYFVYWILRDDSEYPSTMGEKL

Q: What does the source list for CC[C@H](C)[C@H](NC(=O)[C@H](CCC(=O)O)NC(=O)[C@@H](NC(=O)[C@H](CCCCN)NC(=O)[C@H](CCCCN)NC(=O)[C@@H](NC(=O)[C@@H](NC(=O)[C@@H](NC(=O)[C@@H](NC(=O)[C@H](CCCCN)NC(=O)[C@@H](N)CCSC)[C@@H](C)CC)C(C)C)[C@@H](C)CC)C(C)C)C(C)C)C(=O)N[C@@H](CCC(N)=O)C(=O)N[C@H](C(=O)N[C@@H](C)C(=O)NCC(=O)N[C@@H](CCCNC(=N)N)C(=O)N[C@H](C(=O)NCC(=O)N[C@@H](CCSC)C(=O)N[C@@H](CCCNC(=N)N)C(=O)N[C@@H](CS)C(=O)N[C@@H](C)C(=O)N[C@@H](CO)C(=O)N[C@@H](CO)C(=O)N[C@@H](CS)C(=O)NCC(=O)N[C@@H](C)C(=O)N[C@@H](CCCCN)C(=O)N[C@@H](CO)C(=O)O)[C@@H](C)O)C(C)C [RrMbnA] (H-MKIVIVKKVEIQVAGRTGMRCASSCGAKS-OH)?
A: modification by co-expressed RrMbnBC, UV-Vis absorption at ~335 nm [1]: could be modified; effect on RrMbnBC stability in limited proteolysis [2]: enhance RrMbnBC stability

Q: With MKNDKKVVVKVKDKEM [LP] as the molecule, how does the “interaction with VcMbnBC (binding assays, in words)” value ([3]; ITC binding assays of VcMbnBC with VcMbnA variants) read?
A: weak interaction

Q: And the Kd ([3]; ITC, 16 °C, 2 mM peptide, 20 injections of 2.5 μL into 190 μL VcMbnBC 1 mg/mL in 25 mM HEPES pH 8.0, 100 mM NaCl, one-site binding, read-out: Kd, VcMbnA or variant/VcMbnBC)?
A: 63.8 ± 10.5 µM

Q: For MKIVIVKKVEIQVAGRTGMRCASSCGAKS [RrMbnA peptide], which Kd [4] is on record?
A: 2.7 µM

Q: Which Kd [5] does the source give for MKNDKKVVVKVKDKEMTCGAFNK [VcMbnA peptide] here?
A: 4.14 µM

Q: What about the Kd [6] of the same molecule?
A: 3 µM
